Structures can show the parent of a compound that is named as a salt. Where two headings read alike, the source gives them in different places.
Tests used:
[1] = conditioned avoidance-escape procedure (modified pole-climb avoidance); assay type: in vivo; conditions: oral, male Wistar rat
Procedure: In order to further assess their usefulness, representative compounds of the invention were tested in a conditioned avoidance-escape procedure. In this test*, an animal (male Wistar rat) is conditioned to respond to a stimulus in order to avoid an unpleasant electrical shock. Should the animals fail to give the response in order to avoid the shock, an escape route is available so that it can escape the shock once it is delivered. Preferably, compounds will show variations between the dose that will supress conditioned avoidance and the dose that will suppress the escape response.
*Modification of the pole-climb avoidance paradigm described in Ann. NY Acad. Sci., 740, (1957).

[2] = Mouse Activity and Screen Test Procedure (MAST): inhibition of spontaneous locomotion and inverted screen test; assay type: in vivo, Swiss-Webster male mice; conditions: ip, 1 h, intraperitoneal, one hour prior to testing, mice, locomotion over 60 minutes, read-out: Dose at which an overall dose rating of A was obtained
From the text: The compound of the invention are new chemical substances which are useful as pharmaceutical agents for the treatment of psychoses. The antipsychotic activity of representative compounds of the invention was established by the Mouse Activity and Screen Test Procedure (MAST) described below.
ANIMALS: Nine unfasted Swiss-Webster male mice (Buckberg Labs) weighing 20-30 g are equally divided into three groups for each drug dose to be tested. That is, data for each dose level was generated by three separate groups of three mice each.
DRUGS: A minimum of three dose levels (10, 30, and 100 mg/kg) are tested for each drug. Treatments are administered intraperitoneally one hour prior to testing. All dosages are calculated as parent compound and given in volumes of […]. Compounds are dissolved or suspended in 0.2% Methocel. Control animals are injected with Methocel.
TESTING: A two part testing procedure is started one hour postinjection. First, the screen test is performed (see Pharmac. Biochem. Behav. 6, 351-353, 1977). Briefly this test consists of placing mice on individual wire screens which are then rotated 180 degrees at the start of a 60-second observation period. The number of mice falling off the inverted screen is recorded.
Immediately following the screen test, the final phase of testing is initiated by placing each group of three mice in one actophotometer (Life Sciences, 22, 1067-1076, 1978). The actophotometer consists of a cylindrical chamber whose center is occupied by another cylinder which contains the illumination for six photocells located on the perimeter of the chamber. Six light-beam interruptions equal one count. Locomotor activity is recorded by computer at 10-minute intervals for 60 minutes.
DATA: The data obtained from the screen test are expressed as percent of mice falling off the screen. Data derived from locomotor activity of drug treated mice are compared to the activity of vehicle treated animals and are expressed as percent inhibition of spontaneous locomotion. All percentages reported for inhibition of locomotion are based upon data accumulated for one hour. Both phases of testing are graded: A=60-100%; C=31-59%; and N=0-30%. An overall dose rating is obtained by the following criteria: […]
Utilizing this procedure, an overall dose rating of A was obtained for the noted compound at the indicated dose as reported in Table 1.

[3] = as above; assay type: in vivo, Swiss-Webster male mice; conditions: po, Compound administered orally, mice, read-out: Dose at which an overall dose rating of A was obtained
[4] = suppression of conditioned avoidance, read-out: Oral ED50 Avoidance
[5] = suppression of escape response, read-out: Oral ED50 Escape

Row | SMILES | ED50 [1, 4] [mg/kg] | ED50 [1, 5] [mg/kg] | minimal effective dose [2] [mg/kg] | minimal effective dose [3] [mg/kg]
1 | CC1=Nc2c(C)nn(C)c2C2=NC(C)CN12 (racemic) [R1=CH3, R2=CH3, R3=CH3, R4=H, R5=CH3 (Racemate), 7,8-dihydro-1,3,5,8-tetramethyl-1H-imidazo[1,2-c]pyrazolo[3,4-e]pyrimidine] | 10 | 32 |  | 
2 | Cc1nn(C)c2c1N=C(C1CC1)N1CC(C)N=C21 (centres unmarked) [5-Cyclopropyl-7,8-dihydro-1,3,8-trimethyl-1H-imidazo[1,2-c]pyrazolo[3,4-e]pyrimidine] | 11.5 | 110 | 100 | 
3 | CCc1nc2c(C)nn(C)c2c2nc(C)cn12 [5-Ethyl-1,3,8-trimethyl-1H-imidazo[1,2-c]pyrazolo[3,4-e]pyrimidine] | 8 | 45 |  | 
4 | CCC1=Nc2c(C)nn(CC)c2C2=NC(C)CN12 (centres unmarked) [R1=C2H5, R2=CH3, R3=C2H5, R4=H, R5=CH3, 1,5-Diethyl-7,8-dihydro-3,8-dimethyl-1H-imidazo[1,2-c]pyrazolo[3,4-e]pyrimidine] | 9 | 50 | 100 | 
5 | CCn1nc(C)c2c1C1=NC(C)CN1C(C)=N2 (centres unmarked) [R1=C2H5, R2=CH3, R3=CH3, R4=H, R5=CH3, 7,8-Dihydro-1-ethyl-3,5,8-trimethyl-1H-imidazo[1,2-c]pyrazolo[3,4-e]pyrimidine] | 5 | 15 |  | 
6 | CCn1nc(C)c2c1C1=NCCN1C(C)=N2 [R1=C2H5, R2=CH3, R3=CH3, R4=H, R5=H, 1-Ethyl-7,8-dihydro-3,5-dimethyl-1H-imidazo[1,2-c]pyrazolo[3,4-e]pyrimidine] | 10 | 28 |  | 
7 | CC1=Nc2c(C)nn(CC(F)(F)F)c2C2=NC(C)CN12 (centres unmarked) [R1=CF3CH2, R2=CH3, R3=CH3, R4=H, R5=CH3, 7,8-Dihydro-3,5,8-trimethyl-1-(2,2,2-trifluoroethyl)-1H-imidazo[1,2-c]pyrazolo[3,4-e]pyrimidine] |  |  | 100 | 
8 | CCC1=Nc2c(C)nn(C)c2C2=NCC(C)N12 (centres unmarked) [R1=CH3, R2=CH3, R3=C2H5, R4=CH3, R5=H, 7,8-Dihydro-5-ethyl-1,3,7-trimethyl-1H-imidazo[1,2-c]pyrazolo[3,4-e]pyrimidine] | 35 | 52 | 100 | 
9 | CCC1=Nc2c(C)nn(C)c2C2=NC(C)CN12 (centres unmarked) [R1=CH3, R2=CH3, R3=C2H5, R4=H, R5=CH3, 7,8-Dihydro-5-ethyl-1,3,8-trimethyl-1H-imidazo[1,2-c]pyrazolo[3,4-e]pyrimidine] | 6.4 | 66 |  | 
10 | CCC1=Nc2c(C)nn(C)c2C2=NCCN12 [R1=CH3, R2=CH3, R3=C2H5, R4=H, R5=H, 5-Ethyl-7,8-dihydro-1,3-dimethyl-1H-imidazo[1,2-c]pyrazolo[3,4-e]pyrimidine] |  |  |  | 90
11 | CC1=Nc2c(C)nn(C)c2C2=NCC(C)(C)N12 [R1=CH3, R2=CH3, R3=CH3, R4=(CH3)2, R5=H2, 7,8-Dihydro-1,3,5,7,7-pentamethyl-1H-imidazo[1,2-c]pyrazolo[3,4-e]pyrimidine] | 32 | 80 |  | 
12 | CC1=Nc2c(C)nn(C)c2C2=NC(C)C(C)N12 (centres unmarked) [R1=CH3, R2=CH3, R3=CH3, R4=CH3, R5=CH3, 7,8-dihydro-1,3,5,7,8-pentamethyl-1H-imidazo[1,2-c]pyrazolo[3,4-e]pyrimidine] | 20 | 57 | 100 | 
13 | CC1=Nc2c(C)nn(C)c2C2=NC(C)(C)CN12 [R1=CH3, R2=CH3, R3=CH3, R4=H2, R5=(CH3)2, 7,8-Dihydro-1,3,5,8,8-pentamethyl-1H-imidazo[1,2-c]pyrazolo[3,4-e]pyrimidine] | 18 | 120 |  | 
14 | CCC1CN2C(C)=Nc3c(C)nn(C)c3C2=N1 (centres unmarked) [R1=CH3, R2=CH3, R3=CH3, R4=H, R5=C2H5, 8-ethyl-7,8-dihydro-1,3,5-trimethyl-1H-imidazo[1,2-c]pyrazolo[3,4-e]pyrimidine] | 7.5 | 32 |  | 
15 | CC1=Nc2c(C)nn(C)c2C2=N[C@H](C)CN12 [R1=CH3, R2=CH3, R3=CH3, R4=H, R5=CH3 (R-isomer), 7,8-Dihydro-1,3,5-trimethyl-1H-imidazo[1,2-c]-pyrazolo[3,4-e]pyrimidine (R-form)] | < 65 | < 65 |  | 
16 | CC1=Nc2c(C)nn(C)c2C2=N[C@@H](C)CN12 [R1=CH3, R2=CH3, R3=CH3, R4=H, R5=CH3 (S-isomer), 7,8-Dihydro-1,3,5,8-tetramethyl-1H-imidazo[1,2-c]pyrazolo[3,4-e]pyrimidine (S-form)] | 11.5 | 20 | 100 | 
17 | CC1=Nc2c(C)nn(C)c2C2=N[C@@H](C(C)C)CN12 [R1=CH3, R2=CH3, R3=CH3, R4=H, R5=i-C3H7 (S-isomer), 7,8-Dihydro-8-isopropyl-1,3,5-trimethyl-1H-imidazo[1,2-c]pyrazolo[3,4-e]pyrimidine dihydrochloride (S-form)] | 20 | 70 | 100 | 
18 | Cc1nn(C)c2c1N=CN1CC(C)N=C21 (centres unmarked) [R1=CH3, R2=CH3, R3=H, R4=H, R5=CH3, 7,8-Dihydro-1,3,8-trimethyl-1H-imidazo[1,2-c]pyrazolo[3,4-e]pyrimidine] | 18 | 56 | 100 | 
19 | Cc1nn(C)c2c1N=CN1CCN=C21 [R1=CH3, R2=CH3, R3=H, R4=H, R5=H, 7,8-Dihydro-1,3-dimethyl-1H-imidazo[1,2-c]pyrazolo [3,4-e]pyrimidine] | 18 | 54 | 100 | 
20 | CCCn1nc(C)c2c1C1=NC(C)CN1C(C)=N2 (centres unmarked) [R1=n-C3H7, R2=CH3, R3=CH3, R4=H, R5=CH3, 7,8-Dihydro-3,5,8-trimethyl-1-n-propyl-1H-imidazo[1,2-c]pyrazolo[3,4-e]pyrimidine] | 37 | 90 | 100 | 

Source: patent US4469868A, “Alkylimidazo[1,2-c]pyrazolo[3,4-e]pyrimidines” (Warner-Lambert Company, priority 1982, dated 1984)
